For this data set, the system named is Rattus norvegicus.
The mark [1] stands for this setting: acute, oral, gavage, Sprague-Dawley.
Setting [2] is: developmental, oral, gavage, Sprague-Dawley.
Setting [3] is: reproduction developmental, oral, gavage, F, Sprague-Dawley.
[4] abbreviates: subchronic, oral, gavage, Sprague-Dawley.
Where [5] appears, read: reproduction developmental, duration: 41 days, oral, gavage, F, Crj:CD.
Where [6] appears, read: reproduction developmental, duration: 41 days, oral, gavage, M, Crj:CD.

Each structure is given as a SMILES string. “And” between values parts separate entries of the source, which are not always exact repeats. Equal values may be shown once.

Broadly, the LD50 is the dose expected to kill half of the subjects tested. For orientation: NOAEL means the highest dose or exposure tested at which no adverse effect was seen. On to `C=C(C)COc1ccccc1O` [2-[(2-methyl-2-propenyl)oxy]phenol], for which the LD50 under setting [1] was 2840 mg/kg and 2940 mg/kg and 3220 mg/kg. The same molecule displayed an NOAEL (reproduction developmental, oral, gavage, Sprague-Dawley) above 720 mg/kg-day.

In the case of `Cc1cccc(C#N)c1` [3-Methylbenzonitrile], the LD50 (acute, oral, Sprague-Dawley) came to 3000 mg/kg.

Under setting [1], `C=C(C)C(=O)OCC[N+](C)(C)C.[Cl-]` [(2-(Methacryloyloxy)ethyl)trimethylammonium chloride] came in with a median lethal dose (LD50) above 2000 mg/kg. The molecule also returned an NOAEL (short-term, duration: 28 days, oral, diet, F, Crj:CD) above 1000 mg/kg-day and an NOAEL (short-term, duration: 28 days, oral, diet, M, Crj:CD) above 1000 mg/kg-day.

Under “acute, inhalation, CRL:CD BR”, `CC/C=C\C#N` [(2Z)-2-Pentenenitrile] gave an LC50 of 2820 mg/m3. The NOAEL (short-term, duration: 28 days, inhalation, CRL:CD BR) was found to be 995 mg/m3; the no-observed-adverse-effect level (NOAEL) (short-term, duration: 28 days, inhalation, F, CRL:CD BR) amounted to 9.95 mg/m3; the NOAEL (short-term, duration: 28 days, inhalation, M, CRL:CD BR) came to 9.95 mg/m3.

The term LOAEL denotes the lowest tested level that showed an adverse finding. As for `O=C(O)CCC(=O)O` [Butanedioic acid], the LD50 runs as follows: (acute, oral, gavage) 2260 mg/kg; (acute, oral, gavage, Fischer 344) above 8000 mg/kg. For the same molecule, the LOAEL (developmental, injection, intramuscular) is 500 mg/kg-day.

As for `O=C(OCCOCCOC(=O)c1ccccc1)c1ccccc1` [Diethylene glycol dibenzoate], the NOAEL is, setting by setting: (developmental, duration: 38 weeks, oral, diet, Sprague-Dawley) 3300 ppm; (reproduction developmental, duration: 38 weeks, oral, diet, F, Sprague-Dawley) 10000 ppm; (reproduction developmental, duration: 38 weeks, oral, diet, Sprague-Dawley, generation: F0) 10000 ppm.

As to `CCCCCCCCCCCCCOC(=O)c1ccccc1C(=O)OCCCCCCCCCCCCC` [Ditridecyl phthalate], the LD50 under setting [1] is above 2000 mg/kg. The NOAEL is, setting by setting: under setting [2], 250 mg/kg-day; under setting [3], 50 mg/kg-day; (reproduction developmental, oral, gavage, M, Sprague-Dawley) 250 mg/kg-day; (reproduction developmental, oral, gavage, Sprague-Dawley, generation: F1) 250 mg/kg-day; under setting [4], 10 mg/kg-day. The molecule further had an LOAEL under setting [4] of 50 mg/kg-day.

For `CC(C)CCCCC(=O)O` [Isooctanoic acid], the no observed adverse effect level (NOAEL) turned out to be 800 mg/kg-day under setting [2]; 7500 ppm (reproduction developmental, oral, diet, F, Sprague-Dawley); 7500 ppm (reproduction developmental, oral, diet, Sprague-Dawley, generation: F1); 400 mg/kg-day under setting [3].

In the case of `COCO` [Methoxymethanol], the LD50 (acute, oral, gavage, Crj:CD) is 1270 mg/kg. The no-observed-adverse-effect level (NOAEL) was 300 mg/kg-day (developmental, oral, gavage, Crj:CD); 60 mg/kg-day under setting [5]; 12 mg/kg-day under setting [6]; 300 mg/kg-day (reproduction developmental, oral, gavage, Crj:CD); 60 mg/kg-day (reproduction developmental, oral, gavage, F, Crj:CD); 12 mg/kg-day (reproduction developmental, oral, gavage, M, Crj:CD). For the same molecule, the LOAEL was 300 mg/kg-day under setting [5] and 60 mg/kg-day under setting [6].

Regarding `CCCCCCCCCCCCOCCCNCCCN` [N1-[3-(Dodecyloxy)propyl]-1,3-propanediamine], where the note is “acute, oral, gavage”, the LD50 was 378 mg/kg and 299 mg/kg.

`CCCCCCCCCCCCCCCCCCN(C)C` [N,N-Dimethyl-1-octadecanamine]: the LD50 (acute, oral, gavage) stood at 2120 mg/kg.

`O[B-](c1ccccc1)(c1ccccc1)c1ccccc1.[Na+]` [Sodium hydroxytriphenylborate] had an LD50 under setting [1] of 1240 mg/kg.

Where the note is “acute, oral, Sprague-Dawley”, `CC(C)CCCCCCOC(=O)c1ccc(C(=O)OCCCCCCC(C)C)c(C(=O)OCCCCCCC(C)C)c1` [Triisononyl trimellitate] gave an LD50 above 10000 mg/kg.

For `CC(C)(C)CC(C)(C)N` [tert-Octylamine], the LD50 (acute, oral, gavage, CRL:CD BR) amounted to 218 mg/kg.
